Results on two molecules are retold here after US20210002689A1, “METHOD FOR DETECTING DIFFERENT PROPERTIES IN A MICROORGANISM POPULATION BY OPTICALLY INDUCED DIELECTROPHORETIC FORCE” (Chang Gung University, priority 2019, published 2021).

Converted amounts (≈) assume the structure as drawn.

The test system of experiment [1] is E. coli ATCC® 35218. As to conditions: cited from earlier work.
Experiment [2] concerns E. coli ATCC® 35218. The experiment can be described thus: ODEP force analysis after subjecting to ampicillin. The class given is cell-based, Escherichia coli. As to conditions: ampicillin 0, 4, 8 or 16 μg/ml, cultured 1.5 hours, FIG. 5. An excerpt: (§1) Referring to FIG. 1 again, after E. coli ATCC® 35218 and E. coli ATCC® 25922 have been activated, they are made into solutions having bacteria for subsequent antibiotics processing. Steps of making solutions having bacteria are described in detail below: selecting a plurality of activated large E. coli strains; dissolving it in normal saline which is a solution of sodium chloride at 0.9% concentration; adjusting its turbidity to 0.5 McFarland to make the microorganism sample solution 10; in each solution having bacteria, adding different amounts of ampicillin antibiotics powder to make a solution having antibiotics concentration of 0 μg/ml, 4 μg/ml, 8 μg/ml or 16 μg/ml, and finally, culturing each solution of different antibiotics concentration in 5% carbon dioxide concentration and 37° C. for 1.5 hours to make the microorganism sample solution to be tested 14.
(§2) Referring to FIGS. 1 to 4 again, an injection pump is used to inject the microorganism sample solution to be tested 14 into the ODEP device 20 via the sample injection hole 221. Electrical properties (e.g., conduction or polarizability) differences are generated because E. coli ATCC® 35218 and E. coli ATCC® 25922 in the microorganism sample solution to be tested 14 have been subjected to ampicillin. […]

Experiment [3] deals with E. coli ATCC® 25922. The experiment can be described thus: ODEP force analysis after subjecting to ampicillin. The class given is cell-based, Escherichia coli. As to conditions: ampicillin of gradually increased concentration (up to 16 μg/ml), cultured 1.5 hours, FIG. 5.
Description: as §1, §2

In experiment [4] the test system is E. coli ATCC® 25922. As to conditions: cited from earlier work.
Experiment [5] has as its system Staphylococcus aureus strains. The experiment can be described thus: Vancomycin Etest. The class given is cell-based. As to conditions: 125 clinical Staphylococcus aureus strains selected for PAP-AUC (35 hVISA, 90 VSSA); read-out: minimal inhibition concentration.
Description: Firstly, the microorganism sample solution 10 is cultured on a blood agar plate. Next, the microorganism sample solution 10 is cultured in 5% carbon dioxide concentration and 37° C. for 16-18 hours. After being cultured, a single strain group is taken from the blood agar plate and is subjected to a matrix-assisted laser desorption ionization time-of-flight (MALDI-TOF) for strains identification. With respect to selecting strains to be identified as Staphylococcus aureus strains, Vancomycin Etest is used in which 125 strains having a minimal inhibition concentration of 2-4 μg/mL are selected for PAP-AUC.

As for `CC1(C)S[C@@H]2[C@H](NC(=O)[C@H](N)c3ccccc3)C(=O)N2[C@H]1C(=O)O` [ampicillin], the minimal inhibition concentration result with E. coli ATCC® 35218 [1] was “greater than 32 μg/ml”; with E. coli ATCC® 25922 [4], 2 to 8 µg/mL. The “force generated by light (ODEP force)” value in the experiment on E. coli ATCC® 35218 [2] was 220-260 μm/sec; in the experiment on E. coli ATCC® 25922 [3], 100 μm/sec.

With `CN[C@H](CC(C)C)C(=O)N[C@H]1C(=O)N[C@@H](CC(N)=O)C(=O)N[C@H]2C(=O)N[C@H]3C(=O)N[C@H](C(=O)N[C@H](C(=O)O)c4cc(O)cc(O)c4-c4cc3ccc4O)[C@H](O)c3ccc(c(Cl)c3)Oc3cc2cc(c3O[C@@H]2O[C@H](CO)[C@@H](O)[C@H](O)[C@H]2O[C@H]2C[C@](C)(N)[C@H](O)[C@H](C)O2)Oc2ccc(cc2Cl)[C@H]1O` [Vancomycin], the MIC in experiment [5] is 2 to 4 µg/mL (≈ 1.38 to 2.76 µM).
